Results from patent publication US20060069132A1, “Azolecarboxamide herbicides” (priority 2004, published 2006).

How the values were obtained:
[1] = tested on: corn; experiment: Test B pre-/postemergence herbicide test; format: in vivo, Zea mays; conditions: for Corn plant response rating: postemergence
Procedure, shortened: (§1)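 Seeds were planted and treated preemergence with compounds formulated in a non-phytotoxic solvent mixture containing surfactant, while plants at the 1- to 4-leaf stage (2 to 18 cm) received postemergence sprays. Flooded paddy plants were grown to the 2-leaf stage. After 13 to 15 days in a greenhouse, injury was visually rated 0–100 against untreated controls.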

[2] = tested on: giant foxtail; experiment: Test B pre-/postemergence herbicide test; format: in vivo, Setaria faberi; conditions: for Foxtail, Giant plant response rating: postemergence
Procedure, shortened: as §1

[3] = tested on: ducksalad; experiment: Test B flooded paddy test; format: in vivo, Heteranthera limosa; conditions: 1000 g ai/ha, scale 0 to 100 (0 no effect, 100 complete control)
Procedure, shortened: (§2)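 Visual ratings, 0 (no effect) to 100 (complete control), made versus controls after 13–15 d greenhouse. Paddy plants treated at 2-leaf stage; postemergence plants at 1- to 4-leaf stage, 2–18 cm tall.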

[4] = tested on: smallflower umbrella sedge; experiment: Test C flooded paddy test; format: in vivo, Cyperus difformis
[5] = tested on: morningglory; experiment: Test B pre-/postemergence herbicide test; format: in vivo, Ipomoea coccinea; conditions: for Morningglory plant response rating: postemergence
Procedure, shortened: (§3)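 Visual rating, 0 (no effect) to 100 (complete control), versus untreated controls after 13–15 d in greenhouse. Pre- and postemergence applications (postemergence plants 2–18 cm, 1–4 leaves); flooded paddy arm at 2-leaf stage. Compounds in non-phytotoxic solvent plus surfactant.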

[6] = tested on: lambsquarters; experiment: Test B pre-/postemergence herbicide test; format: in vivo, Chenopodium album; conditions: for Lambsquarters plant response rating: postemergence
Procedure, shortened: as §1

[7] = tested on: pigweed; experiment: Test B pre-/postemergence herbicide test; format: in vivo, Amaranthus retroflexus; conditions: for Pigweed plant response rating: postemergence
Procedure, shortened: as §1

[8] = tested on: ducksalad; experiment: Test C flooded paddy test; format: in vivo, Heteranthera limosa
[9] = tested on: rice; experiment: Test B pre-/postemergence herbicide test; format: in vivo, Oryza sativa; conditions: 0 = no effect, 100 = complete control, preemergence
Procedure, shortened: as §1

[10] = tested on: wheat; experiment: Test B postemergence herbicide test; format: in vivo, Triticum aestivum; design: key to Wheat plant response rating: 0 = no effect, 100 = complete control; conditions: postemergence
Procedure, shortened: (§4)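 Treated at 2-leaf (paddy) or 1–4-leaf, 2–18 cm (postemergence); greenhouse 13–15 d; visual score vs control, 0 none to 100 complete control; dash = not tested.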

[11] = tested on: velvetleaf; experiment: Test B pre-/postemergence herbicide test; format: in vivo, Abutilon theophrasti; conditions: for Velvetleaf plant response rating: postemergence
Procedure, shortened: as §1

[12] = tested on: rice; experiment: Test C flooded paddy test; format: in vivo, Oryza sativa
Procedure, shortened: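 Postemergence sprays applied to plants 2 to 18 cm tall (1- to 4-leaf stage); paddy species grown to 2-leaf stage under flooding. After 12 to 14 days in greenhouse, visual rating versus untreated controls on 0–100 scale (0 no effect, 100 complete control).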

[13] = tested on: barnyardgrass; experiment: Test B pre-/postemergence herbicide test; format: in vivo, Echinochloa crus-galli; conditions: for Barnyardgrass plant response rating: postemergence
Procedure, shortened: as §3

[14] = tested on: large crabgrass; experiment: Test B pre-/postemergence herbicide test; format: in vivo, Digitaria sanguinalis; conditions: for Crabgrass, Large plant response rating: postemergence
Procedure, shortened: as §1

[15] = tested on: Surinam grass; experiment: Test B pre-/postemergence herbicide test; format: in vivo, Urochloa decumbens; conditions: for Surinam Grass plant response rating: postemergence
Procedure, shortened: as §1

[16] = tested on: barnyardgrass; experiment: Test B flooded paddy test; format: in vivo, Echinochloa crus-galli; conditions: 1000 g ai/ha, scale 0 to 100 (0 no effect, 100 complete control)
Procedure, shortened: as §2

[17] = tested on: small flower umbrella sedge; experiment: Test B flooded paddy test; format: in vivo, Cyperus difformis; conditions: 1000 g ai/ha, scale 0 to 100 (0 no effect, 100 complete control)
Procedure, shortened: as §2

[18] = tested on: wild oat; experiment: Test B postemergence herbicide test; format: in vivo, Avena fatua; conditions: postemergence
Procedure, shortened: as §4

[19] = tested on: rice; experiment: Test B flooded paddy test; format: in vivo, Oryza sativa; conditions: 1000 g ai/ha, scale 0 to 100 (0 no effect, 100 complete control)
Procedure, shortened: as §2

[20] = tested on: blackgrass; experiment: Test B postemergence herbicide test; format: in vivo, Alopecurus myosuroides; conditions: postemergence
Procedure, shortened: as §2

[21] = tested on: cocklebur; experiment: Test B pre-/postemergence herbicide test; format: in vivo, Xanthium strumarium; conditions: for Cocklebur plant response rating: postemergence
Procedure, shortened: as §3

[22] = tested on: barnyardgrass; experiment: Test C flooded paddy test; format: in vivo, Echinochloa crus-galli
Procedure, shortened: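 After a postemergence application at 1 to 4 leaves (plants 2–18 cm high), or at 2 leaves for barnyardgrass in flooded paddy, plants stayed in the greenhouse for 12 to 14 days. Damage was then judged visually relative to control plants, with 100 indicating complete control.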

[23] = 125 g ai/ha, 0 = no effect, 100 = complete control, preemergence
[24] = 500 g ai/ha, visual rating, 0 = no effect, 100 = complete control, preemergence
[25] = 125 g ai/ha, visual rating, scale 0 (no effect) to 100 (complete control)
[26] = 500 g ai/ha, scale 0 to 100, 0 is no effect, 100 is complete control
[27] = 125 g ai/ha, scale 0 to 100 (0 no effect, 100 complete control)
[28] = 250 g ai/ha, scale of 0 to 100, 0 is no effect, 100 is complete control
[29] = 500 g ai/ha, visual rating after 12 to 14 days, scale 0 to 100 (0 no effect, 100 complete control)

**Q.** For `CCn1nc(C(C)(C)C)c(F)c1C(=O)Nc1cccc(C(=O)N(C)C)n1` [Compound 274], which “Corn plant response rating (0 to 100 scale)” value [1, 23] is on record?
**A.** 0

**Q.** What about the “Plant response rating, Corn” value [1, 24] of the same compound?
**A.** 80

**Q.** What about the “Corn plant response rating” value [1, 25] of the same compound?
**A.** 0

**Q.** And the “Corn plant response rating” value [1, 26]?
**A.** 20

**Q.** What about the “Foxtail, Giant plant response rating (0 to 100 scale)” value [2, 23] of the same compound?
**A.** 10

**Q.** What about the “Plant response rating, Foxtail, Giant” value [2, 24] of the same compound?
**A.** 90

**Q.** And the “Foxtail, Giant plant response rating” value [2, 25]?
**A.** 20

**Q.** And the “Foxtail, Giant plant response rating” value [2, 26]?
**A.** 50

**Q.** What about the “Ducksalad plant response rating” value [3] of the same compound?
**A.** 70

**Q.** And the “Sedge, Umbrella plant response rating” value ([4]; 62 g ai/ha, scale 0 to 100)?
**A.** 0

**Q.** And the “Sedge, Umbrella plant response rating” value [4, 27]?
**A.** 50

**Q.** And the “Sedge, Umbrella plant response rating” value [4, 28]?
**A.** 70

**Q.** What about the “Plant response rating, Sedge, Umbrella” value [4, 29] of the same compound?
**A.** 75

**Q.** And the “Morningglory plant response rating (0 to 100 scale)” value [5, 23]?
**A.** 0

**Q.** What about the “Plant response rating, Morningglory” value [5, 24] of the same compound?
**A.** 10

**Q.** What about the “Morningglory plant response rating” value [5, 25] of the same compound?
**A.** 0

**Q.** And the “Morningglory plant response rating” value [5, 26]?
**A.** 60

**Q.** And the “Lambsquarters plant response rating (0 to 100 scale)” value [6, 23]?
**A.** 70

**Q.** What about the “Plant response rating, Lambsquarters” value [6, 24] of the same compound?
**A.** 100

**Q.** What about the “Lambsquarters plant response rating” value [6, 25] of the same compound?
**A.** 40

**Q.** What about the “Lambsquarters plant response rating” value [6, 26] of the same compound?
**A.** 70

**Q.** What about the “Pigweed plant response rating (0 to 100 scale)” value [7, 23] of the same compound?
**A.** 30

**Q.** And the “Plant response rating, Pigweed” value [7, 24]?
**A.** 100

**Q.** What about the “Pigweed plant response rating” value [7, 25] of the same compound?
**A.** 40

**Q.** What about the “Pigweed plant response rating” value [7, 26] of the same compound?
**A.** 60

**Q.** And the “Ducksalad plant response rating” value ([8]; 62 g ai/ha, scale 0 to 100)?
**A.** 0

**Q.** What about the “Ducksalad plant response rating” value [8, 27] of the same compound?
**A.** 0

**Q.** And the “Ducksalad plant response rating” value [8, 28]?
**A.** 0

**Q.** What about the “Plant response rating, Ducksalad” value [8, 29] of the same compound?
**A.** 20

**Q.** And the “Rice plant response rating (0 to 100 scale)” value ([9]; 125 g ai/ha)?
**A.** 30

**Q.** And the “Plant response rating, Rice” value ([9]; 500 g ai/ha, visual rating)?
**A.** 80

**Q.** And the “Wheat plant response rating” value [10, 25]?
**A.** 20

**Q.** What about the “Wheat plant response rating” value [10, 26] of the same compound?
**A.** 20

**Q.** And the “Velvetleaf plant response rating (0 to 100 scale)” value [11, 23]?
**A.** 20

**Q.** And the “Plant response rating, Velvetleaf” value [11, 24]?
**A.** 70

**Q.** And the “Velvetleaf plant response rating” value [11, 25]?
**A.** 10

**Q.** What about the “Velvetleaf plant response rating” value [11, 26] of the same compound?
**A.** 10

**Q.** What about the “Rice plant response rating” value ([12]; 62 g ai/ha, scale 0 to 100) of the same compound?
**A.** 0

**Q.** And the “Rice plant response rating” value [12, 27]?
**A.** 0

**Q.** What about the “Rice plant response rating” value [12, 28] of the same compound?
**A.** 15

**Q.** What about the “Plant response rating, Rice” value [12, 29] of the same compound?
**A.** 45

**Q.** And the “Barnyardgrass plant response rating (0 to 100 scale)” value [13, 23]?
**A.** 60

**Q.** And the “Plant response rating, Barnyardgrass” value [13, 24]?
**A.** 100

**Q.** And the “Barnyardgrass plant response rating” value [13, 25]?
**A.** 0

**Q.** And the “Barnyardgrass plant response rating” value [13, 26]?
**A.** 10

**Q.** And the “Crabgrass, Large plant response rating (0 to 100 scale)” value [14, 23]?
**A.** 10

**Q.** And the “Plant response rating, Crabgrass, Large” value [14, 24]?
**A.** 100

**Q.** What about the “Crabgrass, Large plant response rating” value [14, 25] of the same compound?
**A.** 0

**Q.** What about the “Crabgrass, Large plant response rating” value [14, 26] of the same compound?
**A.** 0

**Q.** What about the “Surinam Grass plant response rating (0 to 100 scale)” value [15, 23] of the same compound?
**A.** 50

**Q.** And the “Plant response rating, Surinam Grass” value [15, 24]?
**A.** 80

**Q.** And the “Surinam Grass plant response rating” value [15, 25]?
**A.** 20

**Q.** And the “Surinam Grass plant response rating” value [15, 26]?
**A.** 30

**Q.** And the “Barnyardgrass plant response rating” value [16]?
**A.** 70

**Q.** And the “Sedge, Umbrella plant response rating” value [17]?
**A.** 80

**Q.** And the “Oat, Wild plant response rating” value [18, 25]?
**A.** 20

**Q.** What about the “Oat, Wild plant response rating” value [18, 26] of the same compound?
**A.** 40

**Q.** And the “Rice plant response rating” value [19]?
**A.** 60

**Q.** What about the “Blackgrass plant response rating” value [20, 25] of the same compound?
**A.** 30

**Q.** And the “Blackgrass plant response rating” value [20, 26]?
**A.** 30

**Q.** What about the “Cocklebur plant response rating (0 to 100 scale)” value [21, 23] of the same compound?
**A.** 0

**Q.** And the “Plant response rating, Cocklebur” value [21, 24]?
**A.** 0

**Q.** And the “Cocklebur plant response rating” value [21, 25]?
**A.** 0

**Q.** And the “Cocklebur plant response rating” value [21, 26]?
**A.** 10

**Q.** And the “Barnyardgrass plant response rating” value ([22]; 62 g ai/ha, scale 0 to 100 (0 no effect, 100 complete control))?
**A.** 0

**Q.** What about the “Barnyardgrass plant response rating” value [22, 27] of the same compound?
**A.** 10

**Q.** And the “Barnyardgrass plant response rating” value [22, 28]?
**A.** 30

**Q.** And the “Plant response rating, Barnyardgrass” value [22, 29]?
**A.** 60
